In PubChem BioAssay (NCI):
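GI50 marks 50% less growth. TGI is the concentration that stops growth completely.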

How the values were obtained:
Assay in all cases: NCI anticancer screen, dose series, 384-well format
[1] = tested on: RXF 393 renal
[2] = tested on: K-562 leukemia
[3] = tested on: HCT-15 colon
[4] = tested on: MALME-3M melanoma
[5] = tested on: 786-0 renal
[6] = tested on: PC-3 prostate
[7] = tested on: HT29 colon
[8] = tested on: CCRF-CEM leukemia
[9] = tested on: SW-620 colon
[10] = tested on: EKVX NSCLC
[11] = tested on: SK-MEL-2 melanoma
[12] = tested on: OVCAR-5 ovarian
[13] = tested on: NCI-H23 lung
[14] = tested on: NCI-H522 lung
[15] = tested on: SK-OV-3 ovarian
[16] = tested on: HOP-92 NSCLC
[17] = tested on: RPMI-8226 leukemia
[18] = tested on: SF-295 CNS
[19] = tested on: DU-145 prostate
[20] = tested on: T-47D breast
[21] = tested on: SNB-75 CNS
[22] = tested on: U251 glioblastoma
[23] = tested on: SK-MEL-28 melanoma
[24] = tested on: KM12 colon
[25] = tested on: SK-MEL-5 melanoma
[26] = tested on: BT-549 breast
[27] = tested on: HCC-2998 colon
[28] = tested on: HCT-116 colon
[29] = tested on: SN12C renal
[30] = tested on: A498 renal
[31] = tested on: HS 578T breast
[32] = tested on: UACC-257 melanoma
[33] = tested on: OVCAR-4 ovarian
[34] = tested on: IGROV1 ovarian
[35] = tested on: ACHN renal
[36] = tested on: NCI/ADR-RES ovarian
[37] = tested on: SR leukemia
[38] = tested on: COLO 205 colon
[39] = tested on: TK-10 renal
[40] = tested on: MCF7 breast
[41] = tested on: UACC-62 melanoma
[42] = tested on: SNB-19 CNS
[43] = tested on: LOX IMVI melanoma
[44] = tested on: OVCAR-3 ovarian
[45] = tested on: M14 melanoma
[46] = tested on: HOP-62 NSCLC
[47] = tested on: SF-268 CNS
[48] = tested on: UO-31 renal
[49] = tested on: MDA-MB-231 breast
[50] = tested on: SF-539 CNS
[51] = tested on: OVCAR-8 ovarian
[52] = tested on: NCI-H226 lung
[53] = tested on: MDA-MB-435 melanoma
[54] = tested on: NCI-H460 NSCLC
[55] = tested on: HL-60(TB) leukemia
[56] = tested on: MDA-MB-468 breast
[57] = tested on: CAKI-1 renal
[58] = tested on: A549 NSCLC
[59] = tested on: NCI-H322M lung
[60] = tested on: MOLT-4 leukemia

SMILES: Cn1cc(-c2ccc(-c3ccc(C4=NC5(CC5)C(=O)N4C[C@@H]4CCN(C(=O)C5CC5)C4)cc3)cc2)cn1
- GI50 [1]: 14.4 µM
- TGI [1]: 40.7 µM
- GI50 [2]: 6.43 µM
- TGI [2]: > 95.4 µM
- GI50 [3]: 5.68 µM
- TGI [3]: > 62.9 µM
- GI50 [4]: 23 µM
- TGI [4]: 65.1 µM
- GI50 [5]: 12.8 µM
- TGI [5]: 31.8 µM
- GI50 [6]: 20.4 µM
- TGI [6]: 49 µM
- GI50 [7]: 28.1 µM
- TGI [7]: > 100 µM
- GI50 [8]: 11.7 µM
- TGI [8]: 24.3 µM
- GI50 [9]: 19.4 µM
- TGI [9]: > 67.9 µM
- GI50 [10]: 33.3 µM
- TGI [10]: 98.2 µM
- GI50 [11]: 21.9 µM
- TGI [11]: 41.8 µM
- GI50 [12]: 23.4 µM
- TGI [12]: > 100 µM
- GI50 [13]: 14.9 µM
- TGI [13]: 37.7 µM
- GI50 [14]: 12.6 µM
- TGI [14]: 29.6 µM
- GI50 [15]: 30 µM
- TGI [15]: > 89.9 µM
- GI50 [16]: 21.2 µM
- TGI [16]: 59.1 µM
- TGI [17]: 9.91 µM
- GI50 [18]: 14.3 µM
- TGI [18]: > 81.6 µM
- GI50 [19]: 14.6 µM
- TGI [19]: 59.6 µM
- GI50 [20]: 11.9 µM
- TGI [20]: 43.9 µM
- GI50 [21]: 21.5 µM
- TGI [21]: > 87.7 µM
- GI50 [22]: 10.2 µM
- TGI [22]: 38.1 µM
- GI50 [23]: 27.8 µM
- TGI [23]: > 74.8 µM
- GI50 [24]: 6.95 µM
- TGI [24]: > 100 µM
- GI50 [25]: 15.5 µM
- TGI [25]: 37 µM
- GI50 [26]: 0.827 µM
- TGI [26]: 30.1 µM
- GI50 [27]: 23.7 µM
- TGI [27]: > 79.9 µM
- GI50 [28]: 4.95 µM
- TGI [28]: 27.6 µM
- GI50 [29]: 17.1 µM
- TGI [29]: 83.8 µM
- GI50 [30]: 17.6 µM
- TGI [30]: > 56.1 µM
- GI50 [31]: 10.5 µM
- TGI [31]: 39.1 µM
- GI50 [32]: 38.4 µM
- TGI [32]: > 74.7 µM
- GI50 [33]: 8.64 µM
- TGI [33]: 59.1 µM
- GI50 [34]: 25.6 µM
- TGI [34]: > 100 µM
- GI50 [35]: 18.7 µM
- TGI [35]: > 90.1 µM
- GI50 [36]: 14.2 µM
- TGI [36]: 36.2 µM
- GI50 [37]: 0.0145 µM
- TGI [37]: 0.0828 µM
- GI50 [38]: 25.7 µM
- TGI [38]: > 100 µM
- GI50 [39]: 27.5 µM
- TGI [39]: > 100 µM
- GI50 [40]: 3.21 µM
- TGI [40]: > 100 µM
- GI50 [41]: 8.91 µM
- TGI [41]: 22.5 µM
- GI50 [42]: 26.4 µM
- TGI [42]: > 90.1 µM
- GI50 [43]: 2.48 µM
- TGI [43]: 14 µM
- GI50 [44]: 13.5 µM
- TGI [44]: 31.2 µM
- GI50 [45]: 24.7 µM
- TGI [45]: > 79.5 µM
- GI50 [46]: 8.82 µM
- TGI [46]: 26.4 µM
- GI50 [47]: 18.4 µM
- TGI [47]: > 88.4 µM
- GI50 [48]: 1.06 µM
- TGI [48]: 2.43 µM
- GI50 [49]: 12.3 µM
- TGI [49]: 56.1 µM
- GI50 [50]: 13.7 µM
- TGI [50]: > 56.4 µM
- GI50 [51]: 13.4 µM
- TGI [51]: 41.6 µM
- GI50 [52]: 19 µM
- TGI [52]: 97.2 µM
- GI50 [53]: 16.1 µM
- TGI [53]: 41.4 µM
- GI50 [54]: 1.21 µM
- TGI [54]: 2.97 µM
- GI50 [55]: 0.0689 µM
- TGI [55]: 16.3 µM
- GI50 [56]: 15.8 µM
- TGI [56]: 38.4 µM
- GI50 [57]: 1.99 µM
- GI50 [58]: 20.2 µM
- TGI [58]: > 100 µM
- GI50 [59]: 20 µM
- TGI [59]: 75.5 µM
- GI50 [60]: 11 µM
- TGI [60]: 23.2 µM
